System: CT26 and EMT6 cells
Assay: Re-implantation of CT26 and EMT6 cells after combination therapy (immunologic memory)
Format: in vivo, mice
Details: previously treated with anti-PD-L1 + Compound 1
Method: Combination studies were performed by vivoPharm (Hummelstown, PA, USA). All procedures used in the performance of these studies were carried out in accordance with vivoPharm's Standard Operating Procedures, with particular reference to US_SOPvP_EF0314 “General Procedures for Efficacy Studies.” CT26 colon carcinoma cells (1×10^6 cells/mouse in 100 μL, passage 2-3) were re-suspended in serum-free DMEM and implanted in the upper right flank of 11-12 week old female Balb/c mice (Charles River Laboratories). Mice were randomized into four groups of 10 using a matched pair distribution method based on tumor size for CT26. Treatment was initiated 12 days post-inoculation with mean tumor volume at start of dosing of 125.85 mm^3. Vehicle or Compound 1 (40 mg/kg) was administered by oral gavage daily for 26 days and isotype control or a reverse chimera anti-PD-L1 cloned from literature reports (e.g., Deng, R. et al. MAbs (2016), the content of which is incorporated herein by reference in entirety) and placed into a mouse IgG1 framework (10 mg/kg) was administered every 5 days for a total of six doses. Investigators were not blinded to treatment groups. […] Mice were scarified on Day 13 and lung metastases were quantified (small≤1 mm, medium>1 mm and ≤3 mm, large>3 mm). No large lung metastases were detected.

N#Cc1cc(-c2ncnc(Nc3ccc(N4CCN(C5COC5)CC4)cc3)n2)ccc1OC1CCOCC1 [Compound 1, 5-(4-((4-(4-(oxetan-3-yl)piperazin-1-yl)phenyl)amino)-1,3,5-triazin-2-yl)-2-((tetrahydro-2H-pyran-4-yl)oxy)benzonitrile]
growth of reimplanted CT26 in mice with exceptional responses to combination therapy: no growth
